Data on one molecule can be found in PMC5581131, “The novel sphingosine-1-phosphate receptors antagonist AD2900 affects lymphocyte activation and inhibits T-cell entry into the lymph nodes” (Oncotarget, 2017).

One assay deals with S1P1 (Homo sapiens, UniProt P21453). Kind of assay: S1P1 antagonist assay, Tango S1P1 (EDG1)-bla U-2 OS cells. The format is cell-based. Details: Tango fusion partner (protease site + GAL4-VP16 transcription factor); host or cells: Tango S1P1 (EDG1)-bla U-2 OS cells. The settings on record: S1P1 TANGO U-2 OS cell line. As for the experimental part:
(§1) Since AD2900 is a sphingolipid analogue with properties that resemble those of S1P, we intended to examine its ability to interact with the S1P receptors. To delineate whether AD2900 can function as an agonistic or antagonistic compound to any of the S1P receptors, we used a high-throughput screening cell-based assay, employing cell lines stably transfected with human S1P receptors 1, 2, 3, 4, or 5 [37]. In this experiment, a compound with an IC50 or EC50 value ≤10 μM for a certain S1P receptor is considered active as an antagonist or an agonist, respectively. The results illustrate that AD2900 acts as an antagonist to all S1P receptors (Table 1, Supplementary Figure 3). […] No agonist activation was evident.
(§2) The S1P1 agonist test and S1P2, S1P3, S1P4, and S1P5 agonist and antagonist tests were conducted as previously described using S1P1 CRE-bla CHO cells, S1P2 CRE-bla CHO cells, S1P3 NFAT-bla CHO cells, Tango™ S1P4 (EDG6)-bla U-2 OS cells, and Tango™ S1P5 ([…])-bla U-2 OS cells. The S1P1 antagonist assay was carried out according to the manufacturer’s instructions using a Tango™ S1P1 (EDG1)-bla U-2 OS Cell-Based Assay (Invitrogen, NY, USA).

The next assay relates to CEM/C1. Description: XTT viability assay, CEM/C1. The format is cell-based, human. The settings on record: 1-day treatment, compared with Jurkat (>10 μM). As for the experimental part: Figure 1 AD2900 inhibits human lymphocyte proliferation in allogeneic activation (A, B) The levels of proliferative response of human peripheral blood lymphocytes (PBMCs) after 1-day pretreatment with different concentrations of AD2900, AD2750, YZ138, YZ158, and YZ297 (A) or AD2900, FTY720, and SEW2871 (B) were tested by human allogeneic mixed lymphocyte reaction (MLR) assay, followed by a [3H] thymidine incorporation analysis. (C) Apoptosis of AD2900-treated activated PBMCs was tested by AnnexinV-propidium iodide (PI) FACS analysis following 1-day AD2900 pretreatment and MLR. All the samples were compared to the untreated PBMC control. (D) IFN-γ secretion from activated PBMCs was tested by ELISA following a 1-day AD2900 pretreatment in MLR. On the 5th day of hMLR, supernatants were collected and assayed for the level of IFN-γ. (E) Jurkat cell viability after a 1-day treatment with different concentrations of AD2900, FTY720, and SEW2871 was tested by XTT viability assay. (F) H9, CEM/C1, and Molt4 cell viability after a 1-day treatment with different concentrations of AD2900 was tested by XTT viability assay. Graphs summarize the results of at least three independent experiments. Results of Student’s t-test: *(P < 0.05, two-tailed test), ** (P < 0.01, two-tailed test), *** (P < 0.001, two-tailed test), **** (P < 0.0001, two-tailed test). […]

The next assay deals with T1, S1P4 (Homo sapiens, UniProt O95977).
T1 construct: Tango fusion partner (protease site + GAL4-VP16 transcription factor); expressed in transfected cells; host or cells: Tango S1P4 (EDG6)-bla U-2 OS cells
T1 sequence (O95977 1-384): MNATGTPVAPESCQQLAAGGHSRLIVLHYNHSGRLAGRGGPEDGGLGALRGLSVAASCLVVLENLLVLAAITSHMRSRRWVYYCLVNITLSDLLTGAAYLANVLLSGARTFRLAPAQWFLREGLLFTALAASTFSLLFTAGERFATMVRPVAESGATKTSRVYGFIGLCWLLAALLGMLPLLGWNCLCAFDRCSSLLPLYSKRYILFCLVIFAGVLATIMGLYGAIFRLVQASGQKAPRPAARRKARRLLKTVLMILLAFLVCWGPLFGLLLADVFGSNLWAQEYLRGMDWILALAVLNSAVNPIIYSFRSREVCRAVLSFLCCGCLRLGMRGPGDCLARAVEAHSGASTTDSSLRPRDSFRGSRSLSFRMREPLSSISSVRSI
Description: S1P4 antagonist test, Tango S1P4 (EDG6)-bla U-2 OS cells. The settings on record: S1P4 TANGO U-2 OS cell line. The format is cell-based. As for the experimental part: as §1, §2

Chain of S1P1 (P21453 whole entry, the tested form may be a part): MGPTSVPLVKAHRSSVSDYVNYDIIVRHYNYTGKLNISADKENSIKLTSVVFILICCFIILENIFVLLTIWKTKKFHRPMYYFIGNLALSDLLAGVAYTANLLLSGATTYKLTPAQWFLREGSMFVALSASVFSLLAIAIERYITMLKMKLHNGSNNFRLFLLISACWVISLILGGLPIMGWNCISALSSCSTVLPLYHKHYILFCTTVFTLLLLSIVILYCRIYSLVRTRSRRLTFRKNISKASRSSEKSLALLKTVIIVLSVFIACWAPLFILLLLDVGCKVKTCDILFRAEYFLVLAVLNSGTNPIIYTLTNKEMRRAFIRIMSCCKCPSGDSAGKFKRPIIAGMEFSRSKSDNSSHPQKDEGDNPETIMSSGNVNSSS

As to `CCCCCCCCCCCCCCCCNC(CO)(CO)CO` [AD2900], the IC50 was 3.8 µM at S1P1 and 5.9 µM against S1P4. For the same molecule, in the assay with CEM/C1, the “cell viability, CEM/C1” value is on record as “reduced cell viability could be detected even at lower concentrations”.
